One cell line from the supplement of paper PMC10307832 can be followed below.

What all share (test): relative viability (nuclei count vs DMSO), 5 days (fraction); higher = more cells survive
Compound in assay [1]: CC1=NN=C(O1)C2=NN=C(C=C2)N3CCC(CC3)OC4=C(C=CC(=C4)F)Cl + COc1cccc2cc(-c3nc([C@H]4CC[C@H](C(=O)O)CC4)n4ncnc(N)c34)[nH]c12 [OSI-027] (partner 0.5 µM)
The method, boiled down: (§1)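 For relative viability, nuclei counts in treated wells were divided by those in vehicle wells. Lung cancer cell lines had been pin-tool dosed in 1536-well plates the day after seeding and cultured for 5 days, then fixed and stained in one step (final 0.05% Triton X-100, 1% formaldehyde, 1 ug/ml Hoechst) and imaged at 4×. Doses were one drug alone or a fixed anchor-drug dose plus five library-drug doses (not always all listed) in √10 steps, and values are duplicate-plate medians.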

Compound in assay [2]: CC1=NN=C(O1)C2=NN=C(C=C2)N3CCC(CC3)OC4=C(C=CC(=C4)F)Cl + Nc1ncn([C@H]2C[C@H](O)[C@@H](CO)O2)c(=O)n1 [Decitabine] (partner 2 µM)
In short, it runs like this:
as §1

Compound in the assay “Tosedostat + Vorinostat”: CC(C)C[C@@H](C(=O)N[C@H](C(=O)OC1CCCC1)c1ccccc1)[C@H](O)C(=O)NO [Tosedostat] + O=C(CCCCCCC(=O)Nc1ccccc1)NO [Vorinostat] (partner 1 µM)
The method, boiled down: as §1

Compound in the assay “Tosedostat + Bortezomib”: CC(C)C[C@@H](C(=O)N[C@H](C(=O)OC1CCCC1)c1ccccc1)[C@H](O)C(=O)NO [Tosedostat] + CC(C)C[C@H](NC(=O)[C@H](Cc1ccccc1)NC(=O)c1cnccn1)B(O)O [Bortezomib] (partner 0.002 µM)
The method, boiled down:
as §1

Take UMC-11: the relative viability in assay [1] (first compound 0.253 µM) was determined as 0.446; in assay [1] (first compound 0.8 µM), 0.482; in assay [1] (first compound 2.53 µM), 0.529; in assay [1] (first compound 8 µM), 0.565; in assay [2] (first compound 0.253 µM) it was 0.517; in assay [2] (first compound 0.8 µM) it was 0.517. The relative viability was determined as 0.507 in assay [2] (first compound 2.53 µM); 0.466 in assay [2] (first compound 8 µM); 0.459 with Tosedostat + Vorinostat (first compound 0.02 µM); 0.459 in the assay with Tosedostat + Vorinostat (first compound 0.06325 µM); 0.372 with Tosedostat + Vorinostat (first compound 0.2 µM); 0.388 in the assay with Tosedostat + Vorinostat (first compound 0.6325 µM). Also, the relative viability is 0.391 in the assay with Tosedostat + Vorinostat (first compound 2 µM); 0.689 with Tosedostat + Bortezomib (first compound 0.02 µM); 0.523 with Tosedostat + Bortezomib (first compound 0.06325 µM); 0.752 with Tosedostat + Bortezomib (first compound 0.2 µM); 0.663 with Tosedostat + Bortezomib (first compound 0.6325 µM); 0.81 in the assay with Tosedostat + Bortezomib (first compound 2 µM).
